From patent US20080038728A1, “Quadruple Transformed Cell Line Useful for the Identification of Transport Inhibitors” (priority 2004, published 2008) come the findings set out here.

The series concerns MDCKII cell clones. The experiment in a line: Transcellular leakage of [3H]inulin across MDCKII cell monolayers. It counts as in vitro ADME, canine. The following applies: 1 μM [3H]inulin in basolateral compartment, apical radioactivity after 30 min; all MDCKII cell clones. On the procedure:
The transcellular leakage was determined by addition of 1 μM [^3H]inulin to the basolateral compartment and measurement of the radioactivity appearing in the apical compartment after an incubation period of 30 min. The transcellular leakage was 1-2% of the radioactivity added for all MDCKII cell clones examined in this study.

Take inulin [[^3H]inulin]: the transcellular leakage was 1-2 % of the radioactivity added.
